Read-outs that look alike come from different tables or passages of the source.
What was measured:
[1] = system: HIF-1α, phospho-PKM2 (Ser37), phospho-β-catenin (Tyr333) in PANC-1 nuclear extracts; test: Western blot of nuclear translocation of cancer biomarkers in PANC-1 nuclear extracts; type: cell-based, human; settings: PANC-1, 1 μM, 10 minutes, with and without AM251 1 μM 20 minutes
Description: Nuclear protein extraction was carried out using a NE-PER Kit followed by the determination of the levels of HIF-1α and phospho-active forms of β-catenin (Tyr333) and PKM2 (Ser37) by immunoblotting. The same experiment was repeated three times on three separate days.
Cells were lysed in radioimmuno precipitation buffer containing EGTA and EDTA (Boston BioProducts, Ashland, Mass.) supplemented with protease inhibitor cocktail (Sigma-Aldrich). Protein concentration in clarified lysates was determined using the bicinchoninic acid reagent (Thermo Fisher Scientific). Proteins (20 μg/well) were separated on 4-12% precast gels (Invitrogen, Carlsbad, Calif.) using SDS-polyacrylamide gel electrophoresis under reducing conditions and then electrophoretically transferred onto polyvinylidenefluoride membrane (Invitrogen). […] All membrane-bound primary antibodies were detected with horseradish peroxidase-conjugated secondary antibodies (Santa Cruz Biotechnology, Dallas, Tex.) and visualized by enhanced chemiluminescence (ECL Plus, GE Healthcare, Piscataway, N.J.). Quantification of the protein bands was performed by volume densitometry using ImageJ software (National Institutes of Health, Bethesda, Md.) and normalization to β-actin or Lamin A/C. […]

GPR55 (PANC-1 cells) = test: Western blot of cancer biomarker and MDR proteins in PANC-1 cell lysates; settings: for AM251-induced increase in BCRP expression: PANC-1, antagonist 1 μM before AM251 1 μM
Description: (§4) In the first series of experiments, PANC-1 cells were incubated with media containing vehicle (0.01% DMSO) or MNF (10, 100, 500 and 1000 nM) for 24 hours. The medium was removed, and cells were collected and processed for immunoblot analysis. […] Cell lysates were processed for immunoblot analysis, focusing on the expression of selected cancer cell biomarkers. In the third series of experiments, serum-starved PANC-1 cells were pretreated with vehicle (0.01% DMSO), 1 μM MNF, or 1 μM CID for 10 minutes followed by a 20 minute incubation with and without 1 AM251. Cell lysates were processed for immunoblot analysis and the levels of phospho-active (Ser473) and total forms of AKT were determined. All experiments were repeated three times on three separate days, unless stated otherwise.
Cells were lysed in radioimmuno precipitation buffer containing EGTA and EDTA (Boston BioProducts, Ashland, Mass.) supplemented with protease inhibitor cocktail (Sigma-Aldrich). Protein concentration in clarified lysates was determined using the bicinchoninic acid reagent (Thermo Fisher Scientific). […] Western blots were performed according to standard methods, which involved a blocking step in Tris-buffered saline/0.1% Tween-20 (TBS-T) supplemented with 5% non-fat milk and incubation with primary antibodies of interest. All membrane-bound primary antibodies were detected with horseradish peroxidase-conjugated secondary antibodies (Santa Cruz Biotechnology, Dallas, Tex.) and visualized by enhanced chemiluminescence (ECL Plus, GE Healthcare, Piscataway, N.J.). Quantification of the protein bands was performed by volume densitometry using ImageJ software (National Institutes of Health, Bethesda, Md.) and normalization to β-actin or Lamin A/C. […] The antibodies were used at the dilution recommended by the manufacturers.

[2] = system: phospho-PKM2 (Ser37) in PANC-1 cells; test: Immunofluorescence confocal measurement of nuclear phospho-PKM2; type: cell-based, human; settings: PANC-1, 1 μM 10 minutes, basal and after AM251 stimulation
Description: Measurement of nuclear phospho-PKM2. PANC-1 cells were seeded on Lab-Tek II CC2 chamber slides (Thermo Scientific Nunc, Rochester, N.Y.) and grown until they reached >70% confluence. […] The GPR55 agonist AM251 (1 μM) was added for 20 minutes where indicated. Cells were washed twice with PBS, fixed with 4% (v/v) paraformaldehyde (Sigma-Aldrich) in PBS for 20 minutes at room temperature, followed by 3×PBS washes and permeabilization with 0.1% Triton X-100 (Sigma-Aldrich) for 15 minutes. Next, the cells were incubated with 10% goat serum for 1 hour, followed by overnight incubation with rabbit polyclonal anti-phospho-PKM2 antibody (Ser37, 1:200) at 4° C. After 3×PBS washes, Alexa Fluor 488-conjugated goat anti-rabbit antibody (Invitrogen; 1:1000) was added to the slides for 2 hours at room temperature. The slides were washed with PBS and mounted in Prolong Gold antifade mounting medium containing DAPI (4′,6-diamidino-2-phenylindole) (Invitrogen) for nuclear counterstaining. The slides were cured for 24 hours at room temperature in the dark, after which images were acquired with a Zeiss LSM 710 confocal microscope using Carl Zeiss LSM software (Thorn-wood, NY). ImageJ software was used to quantify the changes in the nuclear pool of phospho-PKM2 levels.

[3] = system: AKT phosphorylation (PANC-1 cells); test: Western blot of phospho-active (Ser473) and total AKT in PANC-1 cells; settings: PANC-1, 1 μM 10 minutes, basally and after AM251 20 minutes
Description: as §4

PANC-1 cells [4] = test: [3H]-thymidine incorporation (proliferation / cytotoxicity) in PANC-1 cells; type: cell-based, human; settings: for IC50: Homo sapiens; for fold decrease in calculated IC50 by MNF pretreatment: PANC-1, MNF 1 μM 24 hours pretreatment
Description: (§1) [^3H]-Thymidine incorporation studies. Cells were seeded in 24-well plates at 2.5×10^4 cells per well and grown for 24 hours at 37° C. The effect of MNF (0-10 μM) on [^3H]-thymidine incorporation into PANC-1, MDA-MB-231, and MCF-7 cells was investigated following procedures previously described in Paul, et al., Cannabinoid receptor activation correlates with the proapoptotic action of the β2-adrenergic agonist (R,R′)-4-methoxy-1-naphthylfenoterol in HepG2 hepatocarcinoma cells, J. Pharmacol. Exp. Ther., vol. 343, pgs 157-166 (2012); and Paul, et al., (R,R′)-4′-methoxy-1-naphthylfenoteroltargets GPR55-mediated ligand internalization and impairs cancer cellmotility, Biochem. Pharmacol., vol. 87, pgs 547-561 (2014). The effect of MNF on doxorubicin cytotoxicity in PANC-1 cells was measured using [^3H]-thymidine incorporation. In these studies, the cells were incubated with either fresh medium containing vehicle (0.01% DMSO) or MNF (1 μM) for 24 hours. The spent media was removed and replaced with fresh media supplemented with doxorubicin (0-10 μM) and the cells incubated for an additional 24 hours. [^3H]-Thymidine (1 μCi per well) incorporation into DNA was then performed for 16 hours. Cells were washed with PBS, lysed in 600 μt of 0.1 N NaOH, and the radioactivity was measured by liquid scintillation counting. Three independent experiments were conducted on separate days. Similar experiments were conducted to investigate the effect of MNF on the cytotoxicity of gemcitabine (0-10 μM) in PANC-1 cells. The effects of MNF (1 μM) on the cytotoxicity of doxorubicinin MDA-MB-231 cells and of MNF (0.01 μM) on the cytotoxicity of doxorubicin in U87MG cells were investigated using the protocol described above.
(§2) Sigmoidal dose-response curves (IC50 curves) were determined using the ‘nonlinear regression (curve fit)’ model contained within the Prism 4 software package (GraphPad Software, Inc., La Jolla, Calif.) running on a personal computer. For immunoblot analyses, statistical comparisons between treated and control groups were performed using unpaired Student's t-tests. Data are expressed as relative fold change ±standard deviation. P values ≤0.05 were considered significant.

U87MG glioblastoma cells = test: [3H]-thymidine incorporation (doxorubicin cytotoxicity) in U87MG cells; type: cell-based; settings: Homo sapiens, U-87 MG
Description: [^3H]-Thymidine incorporation studies. Cells were seeded in 24-well plates at 2.5×10^4 cells per well and grown for 24 hours at 37° C. The effect of MNF (0-10 μM) on [^3H]-thymidine incorporation into PANC-1, MDA-MB-231, and MCF-7 cells was investigated following procedures previously described in Paul, et al., Cannabinoid receptor activation correlates with the proapoptotic action of the β2-adrenergic agonist (R,R′)-4-methoxy-1-naphthylfenoterol in HepG2 hepatocarcinoma cells, J. Pharmacol. Exp. Ther., vol. 343, pgs 157-166 (2012); and Paul, et al., (R,R′)-4′-methoxy-1-naphthylfenoteroltargets GPR55-mediated ligand internalization and impairs cancer cellmotility, Biochem. Pharmacol., vol. 87, pgs 547-561 (2014). The effect of MNF on doxorubicin cytotoxicity in PANC-1 cells was measured using [^3H]-thymidine incorporation. In these studies, the cells were incubated with either fresh medium containing vehicle (0.01% DMSO) or MNF (1 μM) for 24 hours. […] Cells were washed with PBS, lysed in 600 μt of 0.1 N NaOH, and the radioactivity was measured by liquid scintillation counting. […]
Sigmoidal dose-response curves (IC50 curves) were determined using the ‘nonlinear regression (curve fit)’ model contained within the Prism 4 software package (GraphPad Software, Inc., La Jolla, Calif.) running on a personal computer. […] Data are expressed as relative fold change ±standard deviation. […]

[5] = system: MDA-MB-231 breast cancer cells; test: [3H]-thymidine incorporation (proliferation / cytotoxicity) in MDA-MB-231 cells; type: cell-based, human; settings: for IC50: Homo sapiens
Description: as §1, §2

[6] = system: Pgp, BCRP in PANC-1 nuclear extracts; test: Immunoblot of Pgp and BCRP in PANC-1 nuclear extracts; type: cell-based, human; settings: MNF 0.5 and 1 μM, 24 hours
Description: Values were normalized to PANC-1 cells treated with 0.01% DMSO as control. Data are expressed as mean±SD from 3 independent experiments. FIG. 5C presents fluorescence imaging of intracellular doxorubicin in PANC-1 cells pretreated with MNF (1 μM) for 24 hours and followed with 0.125 μM of doxorubicin treatment for 2 hours. The upper panel of FIG. 5D presents representative immunoblot depicting protein levels of Pgp, BCRP, and lamin A/C in PANC-1 nuclear extracts after cell treatment with 0.5 and 1 μM of MNF for 24 hours. In the lower panel of FIG. 5D, protein bands were quantified by densitometry and the data normalized to lamin A/C levels and plotted relative to cells treated with 0.01% DMSO as control.
Cells were lysed in radioimmuno precipitation buffer containing EGTA and EDTA (Boston BioProducts, Ashland, Mass.) supplemented with protease inhibitor cocktail (Sigma-Aldrich). Protein concentration in clarified lysates was determined using the bicinchoninic acid reagent (Thermo Fisher Scientific). […] All membrane-bound primary antibodies were detected with horseradish peroxidase-conjugated secondary antibodies (Santa Cruz Biotechnology, Dallas, Tex.) and visualized by enhanced chemiluminescence (ECL Plus, GE Healthcare, Piscataway, N.J.). […]

MDA-MB-231 cells = test: Intracellular uptake of doxorubicin (fluorescence imaging) in MDA-MB-231 cells; type: cell-based, human; settings: MDA-MB-231, MNF 1 μM 24 hours, then doxorubicin 0.125 μM 2 hours, vs control cells
Description: (§3) PANC-1 and MDA-MB-231 cells were seeded on Lab-Tek II CC2 chamber slides and grown until they reached >70% confluence. The original media was removed and cells were incubated in fresh media supplemented with vehicle (0.01% DMSO) or 1 μM MNF for 24 hours, after which doxorubicin (0.125 μM) was added for an additional 2 hours. The cells were washed with PBS and the images were acquired with a Zeiss axiovert 200 microscope using standard FITC filter (#09 filter set) and Carl Zeiss LSM software. ImageJ software was used to quantify the changes in the nuclear accumulation of doxorubicin defined as ring-shaped regions of interest (ROI).

PANC-1 cells [7] = test: Intracellular uptake of doxorubicin (fluorescence imaging) in PANC-1 cells; type: cell-based, human; settings: PANC-1, MNF 1 μM 24 hours, then doxorubicin 0.125 μM 2 hours, vs control cells
Description: as §3

MCF-7 cells = test: [3H]-thymidine incorporation (proliferation) in MCF-7 cells; type: cell-based, human; settings: MCF-7 (low GPR55), MNF 24 hours
Description: as §1, with “Similar experiments were conducted to investigate the effect of MNF on the cytotoxicity of gemcitabine (0-10 μM) in PANC-1 cells. The effects of MNF (1 μM) on the cytotoxicity of doxorubicinin MDA-MB-231 cells and of MNF (0.01 μM) on the cytotoxicity of doxorubicin in U87MG cells were investigated using the protocol described above.” left out

[8] = PANC-1, MNF 1 μM 24 hours, medium replaced, then drug 0-10 μM 24 hours, read-out: calculated IC50 of chemotherapeutic drug, after MNF pretreatment
[9] = PANC-1, vehicle (0.01% DMSO) 24 hours, then drug 0-10 μM 24 hours, read-out: calculated IC50 of chemotherapeutic drug, without MNF pretreatment

Compound: Cc1ccc(-c2n[nH]c3c2C(c2cccc(O)c2)N(c2ccc(C(=O)O)cc2)C3=O)cc1 (centres unmarked) [CID]
- constitutive and AM251-induced nuclear accumulation of HIF-1α and phosphoactive forms of PKM2 (Ser37) and β-catenin (Tyr333) [1]: significantly abrogated
- induction of EGFR, BCRP, PKM2 by AM251 (GPR55 (PANC-1 cells); PANC-1, 1 μM pretreatment 30 minutes, then AM251 1 μM 24 hours): blocked
- basal levels of EGFR, BCRP, and PKM2 proteins (GPR55 (PANC-1 cells); PANC-1, 1 μM, 24 hours): significantly reduced
- AM251-induced increase in BCRP expression (GPR55 (PANC-1 cells)): blocked
- nuclear pool of phosphoactive form of PKM2 [2]: markedly reduced
- activating phosphorylation of AKT [3]: significantly decreased

Compound: COc1cccc2c1C(=O)c1c(O)c3c(c(O)c1C2=O)C[C@@](O)(C(=O)CO)C[C@@H]3O[C@H]1C[C@H](N)[C@H](O)[C@H](C)O1 [doxorubicin]
- IC50 (PANC-1 cells [4]; [8]): 51 ± 2 nM
- IC50 (PANC-1 cells [4]; [9]): 193 ± 4 nM
- fold decrease in calculated IC50 by MNF pretreatment (PANC-1 cells [4]; p<0.001): ~4 fold
- IC50 (U87MG glioblastoma cells; MNF 0.01 μM 24 hours, then doxorubicin 24 hours, p<0.001, read-out: calculated IC50 of doxorubicin, after MNF pretreatment): 1.1 ± 0.5 nM
- IC50 (U87MG glioblastoma cells; doxorubicin 24 hours, read-out: calculated IC50 of doxorubicin, without MNF pretreatment): 6 ± 0.8 nM
- IC50 ([5]; MDA-MB-231, MNF 1 μM 24 hours, then doxorubicin 0-10 μM 24 hours, p<0.05, read-out: calculated IC50 of doxorubicin, after MNF pretreatment): 255 ± 13 nM
- IC50 ([5]; MDA-MB-231, doxorubicin 0-10 μM 24 hours, read-out: calculated IC50 of doxorubicin, without MNF pretreatment): 570 ± 14 nM

Compound: COc1ccc(C[C@@H](C)NC[C@H](O)c2cc(O)cc(O)c2)c2ccccc12 [MNF, (R,R′)-4′-methoxy-1-naphthyl-fenoterol]
- constitutive and AM251-induced nuclear accumulation of HIF-1α and phosphoactive forms of PKM2 (Ser37) and β-catenin (Tyr333) [1]: significantly abrogated
- expression of cancer biomarkers (EGFR, β-catenin, PKM2, cyclin D1, Pgp, BCRP, MRP1, MRP5) (GPR55 (PANC-1 cells); PANC-1, MNF 10-1000 nM, 24 hours): dose-dependently reduces
- AM251-induced increase in BCRP expression (GPR55 (PANC-1 cells)): blocked
- IC50 (PANC-1 cells [4]; PANC-1, MNF 0-10 μM, 24 hours, mean±SD, read-out: IC50, inhibition in cell growth): 650 ± 250 nM
- maximum reduction in cell growth (PANC-1 cells [4]; PANC-1, MNF 0-10 μM, 24 hours, p<0.001): 42%
- nuclear pool of Pgp and BCRP [6]: marked reduction
- nuclear pool of phosphoactive form of PKM2 [2]: markedly reduced
- IC50 ([5]; MDA-MB-231, MNF 24 hours, read-out: IC50, inhibition in cell growth): 106 ± 3 nM
- dose-dependent inhibition in cell growth ([5]; MDA-MB-231, MNF 24 hours): 50%
- uptake and nuclear retention of doxorubicin (MDA-MB-231 cells): enhanced uptake and nuclear retention
- activating phosphorylation of AKT [3]: significantly decreased
- uptake and nuclear retention of doxorubicin (PANC-1 cells [7]): enhancement
- effect on the growth of MCF-7 cells (MCF-7 cells): no significant effect

Compound: Nc1ccn([C@@H]2O[C@H](CO)[C@@H](O)C2(F)F)c(=O)n1 [gemcitabine]
- IC50 (PANC-1 cells [4]; [8]): 153 ± 3 nM
- IC50 (PANC-1 cells [4]; [9]): 487 ± 3 nM
- fold decrease in calculated IC50 by MNF pretreatment (PANC-1 cells [4]; p<0.001): ~3 fold

Reference: patent US20180271808A1, “METHODS OF REDUCING CHEMORESISTANCE AND TREATING CANCER” (Mitchell Woods Pharmaceuticals, Inc., priority 2015, published 2018)
